Blank lines part the entries; values can stand above or below the compound they belong to.
Experiments:
[1] = system: human TNF-α; assay: TNF-α assay: suppression of TNF-α production by LPS-stimulated PBMC (ELISA); format: cell-based; conditions: LPS 1 μg/ml, 72 hours
Method: (§1) Peripheral blood mononuclear cells (herein referred as PBMC), in response to stimulation by lipopolysaccharide (LPS), a gram-negative bacterial endotoxin, produce various […], in particular human TNF-α and IL-1 β. Inhibition of the activation of PBMC can therefore be measured by the level of suppression of the production of TNF-α or IL-1 β by PBMC in response to stimulation by LPS.
(§2) Such inhibition measurement was performed as follows: PBMC were isolated from heparinized peripheral blood by density gradient centrifugation over Lymphoprep (commercially available from Nycomed, Norway). LPS was then added to the PMBC suspension in complete medium (10^6 cells/ml) at a final concentration of 1 μg/ml. The pteridine derivative to be tested was added at different concentrations (0.1 μM, 1 μM and 10 μM) and the cells were incubated at 37° C. for 72 hours in 5% CO2. The supernatants were collected, then TNF-α and/or IL-1 β concentrations were measured with respectively an anti-TNF-α antibody or an anti-IL-1 β antibody in a sandwich ELISA (Duo Set ELISA human TNFα, commercially available from R&D Systems, United Kingdom). The calorimetric reading of the ELISA was measured by a Multiskan RC plate reader (commercially available from ThermoLabsystems, Finland) at 450 nm (reference wavelength: 690 nm). Data analysis was performed with Ascent software 2.6. (also from ThermoLabsystems, Finland): a standard curve (recombinant human TNFα) was drawn and the amount (pg/ml) of each sample on the standard curve was determined.
The % suppression of human TNFα production or human IL-1 β by the pteridine derivatives of the invention (drugs) was calculated using the formula: […]
as §1, with “(hereinafter LPS),” for “(LPS),”, “TNF-α.” for “TNF-α and IL-1 β.”, “TNF-α” for “TNF-α or IL-1 β”
as §2, with “TNF-α” for “TNF-α and/or IL-1 β”, “with” for “with respectively”, “anti-TNF-α” for “anti-TNF-α antibody or an anti-IL-1 β”, “TNF-α,” for “TNFα,”, “colorimetric” for “calorimetric”
The % suppression of human TNFα production by the pteridine derivatives of the invention (drugs) was calculated using the formula: […]

[2] = system: Peripheral blood mononuclear cells; assay: Mixed lymphocyte reaction (MLR) test; format: cell-based, human; conditions: Table 3, 50% suppression of the MLR
Method: Pteridine derivatives were first dissolved (10 mM) in dimethylsulfoxide (hereinafter referred as DMSO) and further diluted in culture medium before use for the following in vitro experiments. The commercially available culture medium consisted of RPMI-1640+10% foetal calf serum (FCS). Some pteridine derivatives described the previous examples were tested in the following lymphocyte activation tests:
(§3) Peripheral blood mononuclear cells (hereinafter referred as PBMC) were isolated from heparinized peripheral blood by density gradient centrifugation over Lymphoprep (Nycomed, Maorstua, Norway). Allogeneic PBMC or Eppstein-Barr Virus-transformed human B cells [commercially available under the trade name RPMI1788 (ATCC name CCL156)] which strongly express B7-1 and B7-2 antigens were used as stimulator cells after irradiation with 30 Gy. MLR was performed in triplicate wells. After 5 days incubation at 37° C., 1 μCi [^3H]-thymidine was added to each cup. After a further 16 hours incubation, cells were harvested and counted in a β-counter. Inhibition of proliferation by a compound (drug) described in some of the previous examples was counted using the formula:
(§4) [formula] wherein cpm is the thymidine count per minute. The MLR assay is regarded by those skilled in the art as an in vitro analogue of the transplant rejection since it is based on the recognition of allogeneic major histocompatibility antigens on the stimulator leukocytes, by responding lymphocytes. Assays for CD3 and CD 28
Pteridine derivatives were first dissolved (10 mM) in dimethylsulfoxide (hereinafter referred as DMSO) and further diluted in culture medium before use for the following in vitro experiments. The commercially available culture medium consisted of RPMI-1640+10% foetal calf serum (FCS). Some pteridine derivatives described in the previous examples (as indicated in table 3 below) were tested in the following mixed lymphocyte reaction (MLR) assay.
as §3, with “CCL156)]which” for “CCL156)] which”
as §4, with “lymphocytes.” for “lymphocytes. Assays for CD3 and CD 28”

- IC50 ([1]; Homo sapiens, PBMC, Table 2): 9.1 µM
SMILES: CC(C)Oc1nc(N)nc2ncc(-c3ccc(C(F)(F)F)cc3)nc12 [Example 36, 2-amino-6-(p-trifluoromethylphenyl)-4-isopropoxypteridine]

- IC50 [2]: 7.8 µM
SMILES: Nc1nc(N2CCOCC2)c2nc(-c3ccc(NC(=O)c4ccco4)cc3)cnc2n1 [Example 79, 2-amino-4-morpholino-6-(4-furoylaminophenyl)pteridine]

- IC50 [2]: 0.8 µM
SMILES: COc1ccc(-c2cnc3nc(NCc4cccs4)nc(NCc4cccs4)c3n2)cc1OC [Example 68, 2,4-di-(thienyl-2-methylamino)-6-(3,4-dimethoxy-Phenyl) pteridine]

- IC50 ([1]; Table 4): 5.5 µM
SMILES: CCOC(=O)CCC(=O)Nc1cccc(-c2cnc3nc(N)nc(N4CCOCC4)c3n2)c1 [Example 94, 2-amino-4-morpholino-6-(3-ethylsuccinylaminophenyl)pteridine]

- IC50 ([1]; Table 2): 4 µM
SMILES: CC(C)Oc1nc(N)nc2c1ncc[n+]2[O-] [Example 10, 2-amino-4-isopropoxypteridine-N^8-oxide]

- IC50 ([2]; Homo sapiens, PBMC): 2.9 µM
SMILES: Nc1nc(N2CCOCC2)c2nc(-c3cccc(NC(=O)C4CCCCC4)c3)cnc2n1 [Example 92, 2-amino-4-morpholino-6-(3-cyclohexanoylaminophenyl)pteridine]

- IC50 [2]: 4.1 µM
SMILES: CC(C)(C)OC(=O)N[C@H](Cc1ccccc1)C(=O)Nc1cccc(-c2cnc3nc(N)nc(N4CCOCC4)c3n2)c1 [Example 99, 2-amino-4-morpholino-6-[3-Boc-(D)-phenylalanine-aminophenyl]pteridine]

- IC50 ([2]; Homo sapiens, PBMC): 5.4 µM
SMILES: COCCOc1ccc(-c2cnc3nc(N)nc(N4CCOCC4)c3n2)cc1 [Example 110, 2-amino-4-morpholino-6-(4-(2-methoxyethoxy)-phenyl)pteridine]

- IC50 ([1]; Homo sapiens, PBMC, Table 2): 6.6 µM
SMILES: CC(C)Oc1nc(N)nc2ncc(-c3ccc(F)c(F)c3)nc12 [Example 37, 2-amino-6-(3,4-difluorophenyl)-4-isopropoxypteridine]

- IC50 ([1]; Table 2): 6.2 µM
SMILES: COc1ccc(-c2cnc3nc(N)nc(OC(C)C)c3n2)cc1 [Example 38]

- IC50 ([1]; Homo sapiens, PBMC, Table 2): > 10 µM
SMILES: CCOc1ccc(-c2cnc3nc(N)nc(OC(C)C)c3n2)cc1 [Example 39, 2-amino-6-(p-ethoxyphenyl)-4-isopropoxypteridine]

- IC50 ([2]; Homo sapiens, PBMC): 2.5 µM
SMILES: Nc1nc(N2CCOCC2)c2nc(-c3ccc(NC(=O)COc4ccccc4)cc3)cnc2n1 [Example 77, 2-amino-4-morpholino-6-(4-phenoxyacetylaminophenyl)pteridine]

- IC50 [2]: 6.4 µM
SMILES: CC(=O)Nc1cccc(-c2cnc3nc(N)nc(N4CCOCC4)c3n2)c1 [Example 73, 2-amino-4-morpholino-6-(3-acetanilide)pteridine]

- IC50 ([2]; Homo sapiens, PBMC): 10 µM
SMILES: Nc1nc(N2CCOCC2)c2nc(-c3cccc(NC(=O)c4ccncc4)c3)cnc2n1 [Example 91, 2-amino-4-morpholino-6-(3-isonicotinoylaminophenyl)pteridine]

- IC50 ([2]; Homo sapiens, PBMC): 2.1 µM
SMILES: Nc1nc(N2CCOCC2)c2nc(-c3ccc(NC(=O)c4ccccc4)cc3)cnc2n1 [Example 76, 2-amino-4-morpholino-6-(4-benzoylaminophenyl)pteridine]

- IC50 ([2]; Homo sapiens, PBMC): 4.1 µM
SMILES: Nc1nc(N2CCOCC2)c2nc(-c3ccc(NC(=O)C4CCCCC4)cc3)cnc2n1 [Example 80, 2-amino-4-morpholino-6-(4-cyclohexanoylaminophenyl)pteridine]

- IC50 ([1]; Table 4): 0.9 µM
SMILES: CCOC(=O)CCCOc1ccc(-c2cnc3nc(N)nc(N4CCOCC4)c3n2)cc1 [Example 108, 2-amino-4-morpholino-6-(4-phenoxy-butyric acid ethyl ester) pteridine]

- IC50 ([1]; Homo sapiens, PBMC, Table 2): > 10 µM
SMILES: CCOc1nc(N)nc2ncc(-c3ccccc3OC)nc12 [Example 14, 2-amino-6-(o-methoxyphenyl)-4-ethoxy-pteridine]

- IC50 ([1]; Table 4): 6.5 µM
SMILES: COc1ccc(-c2cnc3nc(N)nc(NCc4ccccc4)c3n2)cc1OC [Example 113]

- IC50 ([2]; Homo sapiens, PBMC): 4.9 µM
SMILES: Nc1nc(N2CCOCC2)c2nc(-c3cccc(NC(=O)c4ccccc4)c3)cnc2n1 [Example 88, 2-amino-4-morpholino-6-(3-benzoylaminophenyl)pteridine]

- IC50 ([1]; Table 4): 0.5 µM
SMILES: COc1ccc(-c2cnc3nc(N)nc(N4CC=CCC4)c3n2)cc1OC [Example 117]

- IC50 ([1]; Homo sapiens, PBMC, Table 2): 4.5 µM
SMILES: CCOc1nc(N)nc2ncc(-c3ccc(OC)cc3)nc12 [Example 13, 2-amino-6-(p-methoxyphenyl)-4-ethoxy-pteridine]

- IC50 ([2]; Homo sapiens, PBMC): 6.5 µM
SMILES: CCC(=O)Nc1ccc(-c2cnc3nc(N)nc(N4CCOCC4)c3n2)cc1 [Example 78, 2-amino-4-morpholino-6-(4-propionylaminophenyl)pteridine]

- IC50 ([2]; Homo sapiens, PBMC): 4.1 µM
SMILES: Nc1cccc(-c2cnc3nc(N)nc(N4CCOCC4)c3n2)c1 [Example 75, 2-amino-4-morpholino-6-(3-aminophenyl)pteridine]

- IC50 ([2]; Homo sapiens, PBMC): 4.1 µM
SMILES: Nc1nc(N2CCOCC2)c2nc(-c3cccc(NC(=O)COCc4ccccc4)c3)cnc2n1 [Example 96, 2-amino-4-morpholino-6-(3-benzyloxyacetylaminophenyl)pteridine]

- IC50 ([2]; Homo sapiens, PBMC): 10 µM
SMILES: Nc1nc(N2CCOCC2)c2nc(-c3cccc(NC(=O)COc4ccccc4)c3)cnc2n1 [Example 90, 2-amino-4-morpholino-6-(3-phenoxyacetylaminophenyl)pteridine]

- IC50 ([1]; Homo sapiens, PBMC, Table 2): 6.3 µM
SMILES: CC(C)Oc1nc(N)nc2ncc(-c3ccc(C#N)cc3)nc12 [Example 42, 2-amino-6-(p-cyanophenyl)-4-isopropoxypteridine]

- IC50 [2]: 4 µM
SMILES: Nc1nc(N2CCOCC2)c2nc(-c3ccc(NC(=O)c4cccc5ccccc45)cc3)cnc2n1 [Example 84, 2-amino-4-morpholino-6-(4-naphtoylaminophenyl)pteridine]

- IC50 ([1]; Table 4): 0.6 µM
SMILES: CCOC(=O)COc1ccc(-c2cnc3nc(N)nc(N4CCOCC4)c3n2)cc1 [Example 109, 2-amino-4-morpholino-6-(4-phenoxy-acetic acid ethyl ester) pteridine]

- IC50 ([2]; Homo sapiens, PBMC): 3.9 µM
SMILES: Nc1nc(N2CCOCC2)c2nc(-c3ccc(NC(=O)c4ccncc4)cc3)cnc2n1 [Example 83, 2-amino-4-morpholino-6-(4-isonicotinoylaminophenyl)pteridine]

- IC50 ([2]; Homo sapiens, PBMC): 0.8 µM
SMILES: Nc1nc(N2CCOCC2)c2nc(-c3cccc(NS(=O)(=O)c4ccccc4)c3)cnc2n1 [Example 89, 2-amino-4-morpholino-6-(3-benzensulfonylaminophenyl)pteridine]
